Experimental data from article PMC7337056, “Structural and biochemical characterization of the pleckstrin homology domain of the RhoGEF P-Rex2 and its regulation by PIP3” (Journal of Structural Biology: X, 2018).
Positions count from the first letter of the chain named.

Legend:
Format in all cases: binding
P-Rex2 PH domain [1] = target: T1, P-Rex2 PH domain (Homo sapiens, UniProt Q70Z35, K337A); test: differential scanning fluorimetry (SYPRO orange); conditions: 50 mM HEPES pH 8, 150 mM NaCl, 2 mM DTT; 1 mM ligand
T1 construct: gene PREX2; PH domain, residues 219-364 for assays (219-377 for crystal 6BNM); 10xHis-MBP tag removed with TEV; E. coli Rosetta (DE3) pLysS
T1 sequence (Q70Z35 219-364 K337A): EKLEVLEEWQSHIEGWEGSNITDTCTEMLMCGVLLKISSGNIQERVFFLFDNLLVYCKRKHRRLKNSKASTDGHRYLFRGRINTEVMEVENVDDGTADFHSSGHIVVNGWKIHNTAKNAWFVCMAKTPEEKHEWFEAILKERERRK

P-Rex1 PH domain [2] = target: T2, P-Rex1 PH domain (Homo sapiens, UniProt Q8TCU6, K280A); test: differential scanning fluorimetry (SYPRO orange); conditions: 50 mM HEPES pH 8, 150 mM NaCl, 2 mM DTT; 1 mM ligand
T2 construct: gene PREX1; PH domain, residues 245-408; 10xHis-MBP tag removed with TEV; E. coli Rosetta (DE3) pLysS
T2 sequence (Q8TCU6 245-408 K280A): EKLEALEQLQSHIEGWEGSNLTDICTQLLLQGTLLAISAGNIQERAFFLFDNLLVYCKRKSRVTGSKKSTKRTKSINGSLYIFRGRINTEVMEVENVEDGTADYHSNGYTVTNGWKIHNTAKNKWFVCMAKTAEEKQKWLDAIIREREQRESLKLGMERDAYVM

P-Rex2 PH domain [3] = target: T3, P-Rex2 PH domain (Homo sapiens, UniProt Q70Z35); test: differential scanning fluorimetry (SYPRO orange)
T3 construct: gene PREX2; PH domain, residues 219-364 for assays (219-377 for crystal 6BNM); 10xHis-MBP tag removed with TEV; E. coli Rosetta (DE3) pLysS
T3 sequence (Q70Z35 219-364): T1 sequence (Q70Z35 219-364 K337A) with A119K

P-Rex1 PH domain [4] = target: T4, P-Rex1 PH domain (Homo sapiens, UniProt Q8TCU6, K368A); test: differential scanning fluorimetry (SYPRO orange); conditions: 50 mM HEPES pH 8, 150 mM NaCl, 2 mM DTT; 1 mM ligand
T4 construct: gene PREX1; PH domain, residues 245-408; 10xHis-MBP tag removed with TEV; E. coli Rosetta (DE3) pLysS
T4 sequence (Q8TCU6 245-408 K368A): as the sequence (Q8TCU6 245-408 K280A) above, with A36K, K124A counted along it

P-Rex2 PH domain [5] = target: T3, P-Rex2 PH domain; test: isothermal titration calorimetry; conditions: 20 mM HEPES pH 8, 150 mM NaCl, 25 °C
P-Rex2 PH domain [6] = target: T5, P-Rex2 PH domain (Homo sapiens, UniProt Q70Z35, K254A); test: differential scanning fluorimetry (SYPRO orange); conditions: 50 mM HEPES pH 8, 150 mM NaCl, 2 mM DTT; 1 mM ligand
T5 construct: gene PREX2; PH domain, residues 219-364 for assays (219-377 for crystal 6BNM); 10xHis-MBP tag removed with TEV; E. coli Rosetta (DE3) pLysS
T5 sequence (Q70Z35 219-364 K254A): T1 sequence (Q70Z35 219-364 K337A) with K36A, A119K

ΔTm at 1000 µM (P-Rex2 PH domain [3]): 11 °C
Kd (P-Rex2 PH domain [5]): 240 ± 140 nM
SMILES: O=P(O)(O)OC1[C@H](O)[C@H](OP(=O)(O)O)C(OP(=O)(O)O)[C@H](OP(=O)(O)O)[C@H]1O (stereo partly drawn) [Ins(1,3,4,5)P4, D-myo-Inositol-1,3,4,5-tetraphosphate]
ΔTm at 1 mM (P-Rex2 PH domain [1]): mutation of any one of the PIP3-binding residues drastically reduces the temperature shift
ΔTm at 1 mM (P-Rex1 PH domain [2]): P-Rex1 variants display the same trends in binding deficiency
ΔTm at 1 mM (P-Rex1 PH domain [4]): P-Rex1 variants display the same trends in binding deficiency
ΔTm at 1 mM (P-Rex2 PH domain [6]): mutation of any one of the PIP3-binding residues drastically reduces the temperature shift
